Laboratory results from US20260217674A1 (priority 2023, published 2026).
Where two headings read alike, the source gives them in different places.

Legend:
[1] = target: acetylcholinesterase (AChE) (Homo sapiens, UniProt P22303); experiment: biochemical; type: biochemical; conditions: for inhibition at 0.001 µM: read-out: % Inhibition (1 nM); for inhibition at 0.01 µM: read-out: % Inhibition (10 nM); for inhibition at 0.1 µM: read-out: % Inhibition (100 nM)
Description: A solution of each tested compound is prepared by dissolving the compound in DMSO at 1 mM stock solution and diluting with water to the following concentration 100 nM, 10 nM and 1 nM.
The procedure of MAK119 kit assay of Sigma Aldrich (colorimetric test) has been followed as described:
The Working Reagent (MAK119C) of the kit is prepared fresh and used within 30 minutes.
A solution B made with […] of water and […] of Calibrator (MAK119B of the kit) is distributed into separate wells of the 96-well plate. […] of the solution of the tested compound is added into wells and then […] of the solution A is added to all sample wells.
The plate was incubated at room temperature for 2 min and the initial absorbance at 412 nm (A412)ini was measured. After 10 min of incubation at room temperature the final measurement (A412)final.
The following calculation is then achieved: […] Inhibition was calculated by comparing the absorbance of the samples containing the tested compounds at 412 nm (A412) and of the absorbance of the negative and positive controls after 12 min of incubation.

VGLUT3^T8I/T8I mice = experiment: Activity-based anorexia (ABA) model in hypocholinergic VGLUT3^T8I/T8I mice; type: in vivo; conditions: for percentage of mice weighing at least 75% of their baseline body weight: after 8 days
From the text: Self-starvation behaviors are modeled in the activity-based anorexia (ABA) test (Klenotich, S. J., Dulawa, 2012 Methods Mol Biol 829, 377-93). In this test, animals are housed in the presence of a running wheel. Access to food is progressively restricted over a period of 8 days. For these animal experiments, an hypocholinergic mouse model was used. The type 3 atypical vesicular transporter (VGLUT3) is expressed by all cholinergic striatal interneurons (El Mestikawy et al. 2011, Nat Rev Neurosci 12(4), 204-16).
In 2015, the El Mestikawy team discovered a p.T8I variant of VGLUT3 expressed in patients suffering from substance use disorder and from eating disorders (Sakae et al. Mol Psychiatry, 2015, 20(11), 1448-59). Mice expressing this variant (VGLUT3^T8I/T8I mice) have a reduced cholinergic tone in the striatum and are more vulnerable to self-starvation in the ABA model. In other terms, VGLUT3^T8I/T8I mice present the same main symptomology than anorexic patients and are considered to be a model of choice for anorexia.
The ABA model was performed as described by Klenotich and Dulawa (Klenotich, S. J., Dulawa, 2012 Methods Mol Biol 829, 377-93) and as previously reported (Favier, M., et al., J Clin Invest 130, 6616-6630 (2020)). For habituation, all mice were individually housed in cages with running wheels for 7 days with unrestricted access to food, water and running wheel. After the adaptation period, all mice were maintained in the same running wheel cages for 8 additional days. Access to food was progressively restricted, from 8 h (day 1) to 2 h (day 8) per day. Body weight and food intake were measured daily before and after food access, respectively. […]. Mice were treated daily 30 min before the start of food access, during both baseline and food restriction phases.

[2] = compound 1 nM, absorbance 412 nm, 12 min incubation
[3] = compound 10 nM, absorbance 412 nm, 12 min incubation
[4] = compound 100 nM, absorbance 412 nm, 12 min incubation

acetylcholinesterase (AChE), sequence (P22303 32-614): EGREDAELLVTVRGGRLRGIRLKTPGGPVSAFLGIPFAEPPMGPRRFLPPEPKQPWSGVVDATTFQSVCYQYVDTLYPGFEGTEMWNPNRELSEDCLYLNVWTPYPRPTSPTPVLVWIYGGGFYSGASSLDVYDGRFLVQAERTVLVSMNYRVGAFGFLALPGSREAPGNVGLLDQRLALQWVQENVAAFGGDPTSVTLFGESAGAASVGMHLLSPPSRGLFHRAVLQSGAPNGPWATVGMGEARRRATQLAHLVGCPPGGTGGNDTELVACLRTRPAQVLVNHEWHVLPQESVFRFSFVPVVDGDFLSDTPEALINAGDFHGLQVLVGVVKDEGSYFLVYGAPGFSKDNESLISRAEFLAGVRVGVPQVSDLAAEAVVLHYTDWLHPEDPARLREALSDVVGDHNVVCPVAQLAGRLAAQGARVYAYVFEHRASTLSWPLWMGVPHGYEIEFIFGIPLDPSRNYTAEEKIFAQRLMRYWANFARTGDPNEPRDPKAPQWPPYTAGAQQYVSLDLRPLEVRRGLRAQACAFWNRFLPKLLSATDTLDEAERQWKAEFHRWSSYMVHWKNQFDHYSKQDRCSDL

COc1ccc2c(c1)C=C/C(=C/Oc1cc3c(cc1OC)C(=O)C(CC1CCN(Cc4ccccc4)CC1)C3)N2C(C)C (centres unmarked) [Compound 56]
inhibition at 0.001 µM [1, 2]: 50%
inhibition at 0.01 µM [1, 3]: 75%
inhibition at 0.1 µM [1, 4]: 100%
percentage of mice weighing at least 75% of their baseline body weight (VGLUT3^T8I/T8I mice; 0.01 mg/kg daily i.p.): about 90%
percentage of mice weighing at least 75% of their baseline body weight (VGLUT3^T8I/T8I mice; 0.03 mg/kg daily i.p., FIG. 1(B)): 60%
efficiency in reducing the food restriction (food intake) (VGLUT3^T8I/T8I mice; donquine 0.01 mg/kg versus donepezil 0.03 mg/kg daily i.p., FIG. 1(C)): more efficient than donepezil at 0.03 mg/kg

COc1cc2c(cc1OC[n+]1cccc3ccc(O)cc31)CC(CC1CCN(Cc3ccccc3)CC1)C2=O (centres unmarked) [Compound 57]
inhibition at 0.01 µM [1]: 100%
inhibition at 0.1 µM [1]: 100%

COc1cc2c(cc1OC[n+]1cccc3cccc(N)c31)CC(CC1CCN(Cc3ccccc3)CC1)C2=O (centres unmarked) [Compound 59]
inhibition at 0.01 µM [1, 3]: 100%
inhibition at 0.1 µM [1, 4]: 100%

COc1cc2c(cc1OCc1ccc3cccc(N)c3[n+]1C)CC(CC1CCN(Cc3ccccc3)CC1)C2=O (centres unmarked) [Compound 62]
inhibition at 0.01 µM [1, 3]: 100%
inhibition at 0.1 µM [1, 4]: 100%

COc1cc2c(cc1OCc1ccc3c(Cl)cc[n+](C)c3c1)CC(CC1CCN(Cc3ccccc3)CC1)C2=O (centres unmarked) [Compound 63]
inhibition at 0.001 µM [1]: 75%
inhibition at 0.01 µM [1]: 75%
inhibition at 0.1 µM [1]: 75%

COc1cc2c(cc1OCc1ccc3ccc[n+](C)c3c1)CC(CC1CCN(Cc3ccccc3)CC1)C2=O (centres unmarked) [Compound 64]
inhibition at 0.001 µM [1, 2]: 25%
inhibition at 0.01 µM [1, 3]: 100%
inhibition at 0.1 µM [1, 4]: 100%

COc1cc2c(cc1OCc1cc[n+](C(C)C)c3ccccc13)CC(CC1CCN(Cc3ccccc3)CC1)C2=O (centres unmarked) [Compound 75]
% Inhibition (10 nM) [1, 3]: 100%
% Inhibition (100 nM) [1, 4]: 100%

COc1cc2c(cc1OCc1ccc3ccccc3[n+]1C(C)C)CC(CC1CCN(Cc3ccccc3)CC1)C2=O (centres unmarked) [Compound 76]
inhibition at 0.01 µM [1, 3]: 100%
inhibition at 0.1 µM [1, 4]: 100%

COc1cc2c(cc1OC)C(=O)C(CC1CCN(Cc3ccccc3)CC1)C2 (centres unmarked) [Donepezil, donepezil, reference compound]
efficiency in reducing the number of mice losing weight until 75% of baseline bodyweight or less (VGLUT3^T8I/T8I mice; donepezil 0.03 mg/kg versus donquine 0.01 mg/kg daily i.p., FIG. 1(D)): less efficient
